Measurements published in patent publication US6376537B1, “Cancer treatment” (priority 2000, dated 2002).

Assays:
hepatocellular carcinoma = test: Liver cancer case report, oral Simvastatin treatment; assay type: in vivo, human
Protocol: (§1) Its use according to this invention in the treatment of malignant disease consists of daily administration of an 80 mg tablet orally.
(§2) In order to avoid unforeseen side effects, the treatment is initiated at about 20 mg dose tablet once daily for one week. The dose then is increased to about 40 mg once daily for an additional week. The following week the dose is increased to about 60 mg and on the fourth week the dose is increased to about 80 mg (two tablets of 40 mg each), and to remain so indefinitely. The intervals for stepping up the dosage can vary.

metastatic colon cancer = test: Colon cancer case reports, oral Simvastatin treatment; assay type: in vivo, human; conditions: Case #1, 20 mg daily raised to 80 mg; over three to four months
Protocol: as §1, §2
Case #1: business person who underwent hemicolectomy for adenocarcinoma of the colon in 1993 was presented in 1995 to Cedars Sinai Medical Center Liver Team for possible cryotherapy. At that time they had multiple masses in both lobes of the liver as well as outside their liver and multiple nodules in both lungs. Clinically they were bedridden, weak and malnourished. They were rejected as a suitable candidate for needle cryotherapy because of their advanced disease, and was considered unrescuable with a life expectancy of several weeks.
The dose was increased by 20 mg increments every two weeks up to the dose of 80 mg. […] […] gained 27 pounds, became normally active, including extensive travel around the world.
Case #2: person underwent hemicolectomy for cancer of the colon in 1995 because of intestinal obstruction. […]

CCC(C)(C)C(=O)O[C@H]1C[C@@H](C)C=C2C=C[C@H](C)[C@H](CC[C@@H]3C[C@@H](O)CC(=O)O3)[C@H]21 [Simvastatin]
tumor marker alpha fetoprotein (hepatocellular carcinoma; patient, baseline above 55,000, started January 1999, value by April of 1999): less than 8 | tumor marker alpha fetoprotein (hepatocellular carcinoma; same patient, value in March 2000): 2.4 | weight gain (metastatic colon cancer): 27 pounds
